Laboratory results as given in patent publication US11505573B2, “Peptide macrocycles against Acinetobacter baumannii” (Hoffmann-La Roche Inc., priority 2018, dated 2022).
pIC50: −log10 of the molar value.

Tested on: A. baumannii ATCC 17978
Experiment: Antimicrobial susceptibility testing: 50% growth inhibitory concentration (IC50) determination in Iso-Sensitest broth
Type: cell-based
Conditions: Acinetobacter baumannii; A. baumannii strain ATCC17978; Iso-Sensitest medium; OD 600 nm over 16 h; 35±2° C.; read-out: IC50 ATCC17978 (50% growth inhibition concentration)
Description: Antimicrobial Susceptibility Testing: 50% Growth Inhibitory Concentration (IC50) Determination The in vitro antimicrobial activity of the compounds was alternatively determined according to the following procedure: The assay used a 10-points Iso-Sensitest broth medium to measure quantitatively the in vitro activity of the compounds against A. baumannii ATCC 17978. Stock compounds in DMSO were serially twofold diluted (e.g. range from 10 to 0.02 μM final concentration) in 384 wells microtiter plates and inoculated with 49 μl the bacterial suspension in Iso-Sensitest medium to have a final cell concentration of ˜5×10^(5) CFU/ml in a final volume/well of […] Microtiter plates were incubated at 35±2° C. Bacterial cell growth was determined by the measurement of optical density at λ=600 nm each 20 minutes over a time course of 16 h. Growth inhibition was calculated during the logarithmic growth of the bacterial cells by determination of the concentration inhibiting 50% (IC50) and 90% (IC90) of the growth. Table 1 provides the 50% growth inhibitory concentrations (IC50) in micromoles per liter of the compounds of present invention obtained against the A. baumannnii strain ATCC17978.

pIC50 | Compound
7.70 | CN1C(=O)[C@H](CCCN)NC(=O)[C@H](CCCN)NCc2cccnc2Sc2c(F)ccc(-c3ccc(S(=O)(=O)O)cc3)c2CNC(=O)[C@@H]1Cc1c[nH]c2ccccc12 [Example 9.00, 4-[(11S,14S,17S)-11,14-Bis(3-aminopropyl)-25-fluoro-17-(1H-indol-3-ylmethyl)-16-methyl-12,15,18-trioxo-2-thia-4,10,13,16,19-pentazatricyclo[19.4.0.03,8]pentacosa-1(25), 3(8),4,6,21,23-hexaen-22-yl]benzenesulfonic acid]
7.70 | Cc1ccc(-c2ccc(S(=O)(=O)O)cc2)c2c1Sc1ncccc1CN[C@@H](CCCN)C(=O)N[C@@H](CCCCN)C(=O)N(C)[C@@H](Cc1c[nH]c3ccccc13)C(=O)NC2 [Example 11.00, 4-[(11S,14S,17S)-14-(4-Aminobutyl)-11-(3-aminopropyl)-17-(1H-indol-3-ylmethyl)-16,25-dimethyl-12,15,18-trioxo-2-thia-4,10,13,16,19-pentazatricyclo[19.4.0.03,8]pentacosa-1(25), 3(8),4,6,21,23-hexaen-22-yl]benzenesulfonic acid]
7.70 | CN1C(=O)[C@H](CCCCN)NC(=O)[C@H](CCN)NCc2cccnc2Sc2c(Cl)ccc(-c3ccc(S(=O)(=O)O)cc3)c2CNC(=O)[C@@H]1Cc1c[nH]c2ccccc12 [Example 12.00, 4-[(11S,14S,17S)-14-(4-Aminobutyl)-11-(2-aminoethyl)-25-chloro-17-(1H-indol-3-ylmethyl)-16-methyl-12,15,18-trioxo-2-thia-4,10,13,16,19-pentazatricyclo[19.4.0.03,8]pentacosa-1(25), 3(8),4,6,21,23-hexaen-22-yl]benzenesulfonic acid]
7.10 | COc1ccc(-c2ccc(S(=O)(=O)O)cc2)c2c1Sc1ncccc1CN[C@@H](CCCN)C(=O)N[C@@H](CCCCN)C(=O)N(C)[C@@H](Cc1c[nH]c3ccccc13)C(=O)NC2 [Example 15.00, 4-[(11S,14S,17S)-14-(4-Aminobutyl)-11-(3-aminopropyl)-17-(1H-indol-3-ylmethyl)-25-methoxy-16-methyl-12,15,18-trioxo-2-thia-4,10,13,16,19-pentazatricyclo[19.4.0.03,8]pentacosa-1(25), 3(8),4,6,21,23-hexaen-22-yl]benzenesulfonic acid]

The remaining lines, values behind:

Compound | pIC50
CN1C(=O)[C@H](CCCN)NC(=O)[C@H](CCCN)NCc2cccnc2Sc2c(Cl)ccc(-c3ccc(-c4nnn[nH]4)cc3)c2CNC(=O)[C@@H]1Cc1c[nH]c2ccccc12 [Example 8.01, (11S,14S,17S)-11,14-bis(3-aminopropyl)-25-chloro-17-(1H-indol-3-ylmethyl)-16-methyl-22-[4-(1H-tetrazol-5-yl)phenyl]-2-thia-4,10,13,16,19-pentazatricyclo[19.4.0.03,8]pentacosa-1(21),3,5,7,22,24-hexaene-12,15,18-trione] | 7.70
CN1C(=O)[C@H](CCCN)NC(=O)[C@H](CCCN)NCc2cccnc2Sc2c(Cl)ccc(-c3cnc(=O)[nH]c3)c2CNC(=O)[C@@H]1Cc1c[nH]c2ccccc12 [Example 8.02, (11S,14S,17S)-11,14-bis(3-aminopropyl)-25-chloro-17-(1H-indol-3-ylmethyl)-16-methyl-22-(2-oxo-1H-pyrimidin-5-yl)-2-thia-4,10,13,16,19-pentazatricyclo[19.4.0.03,8]pentacosa-1(21),3,5,7,22,24-hexaene-12,15,18-trione] | 7.10
CN1C(=O)[C@H](CCCN)NC(=O)[C@H](CCCN)NCc2cccnc2Sc2c(F)ccc(-c3ccc(-c4nnn[nH]4)cc3)c2CNC(=O)[C@@H]1Cc1c[nH]c2ccccc12 [Example 9.01, (11S,14S,17S)-11,14-Bis(3-aminopropyl)-25-fluoro-17-(1H-indol-3-ylmethyl)-16-methyl-22-[4-(1H-tetrazol-5-yl)phenyl]-2-thia-4,10,13,16,19-pentazatricyclo[19.4.0.03,8]pentacosa-1(25), 3(8),4,6,21,23-hexaene-12,15,18-trione] | 7.70
CN1C(=O)[C@H](CCCN)NC(=O)[C@H](CCCN)NCc2cccnc2Sc2c(F)ccc(-c3ccc(P(=O)(O)O)cc3)c2CNC(=O)[C@@H]1Cc1c[nH]c2ccccc12 [Example 10.00, [4-[(11S,14S,17S)-11,14-Bis(3-aminopropyl)-25-fluoro-17-(1H-indol-3-ylmethyl)-16-methyl-12,15,18-trioxo-2-thia-4,10,13,16,19-pentazatricyclo[19.4.0.03,8]pentacosa-1(25), 3(8),4,6,21,23-hexaen-22-yl]phenyl]phosphonic acid] | 6.21
CN1C(=O)[C@H](CCCCN)NC(=O)[C@H](CCC(N)=O)NCc2cccnc2Sc2c(Cl)ccc(-c3ccc(P(=O)(O)O)cc3)c2CNC(=O)[C@@H]1Cc1c[nH]c2ccccc12 [Example 10.01, [4-[(11S,14S,17S)-14-(4-aminobutyl)-11-(3-amino-3-oxo-propyl)-25-chloro-17-(1H-indol-3-ylmethyl)-16-methyl-12,15,18-trioxo-2-thia-4,10,13,16,19-pentazatricyclo[19.4.0.03,8]pentacosa-1(21),3,5,7,22,24-hexaen-22-yl]phenyl]phosphonic acid] | 5.52
CN1C(=O)[C@H](CCCCN)NC(=O)[C@H](CCCN)NCc2cccnc2Sc2c(Cl)ccc(-c3ccc(P(=O)(O)O)cc3)c2CNC(=O)[C@@H]1Cc1c[nH]c2ccccc12 [Example 10.02, [4-[(11S,14S,17S)-14-(4-aminobutyl)-11-(3-aminopropyl)-25-chloro-17-(1H-indol-3-ylmethyl)-16-methyl-12,15,18-trioxo-2-thia-4,10,13,16,19-pentazatricyclo[19.4.0.03,8]pentacosa-1(21),3,5,7,22,24-hexaen-22-yl]phenyl]phosphonic acid] | 6.82
Cc1ccc(-c2ccc(-c3nnn[nH]3)cc2)c2c1Sc1ncccc1CN[C@@H](CCCN)C(=O)N[C@@H](CCCCN)C(=O)N(C)[C@@H](Cc1c[nH]c3ccccc13)C(=O)NC2 [Example 11.01, (11S,14S,17S)-14-(4-Aminobutyl)-11-(3-aminopropyl)-17-(1H-indol-3-ylmethyl)-16,25-dimethyl-22-[4-(1H-tetrazol-5-yl)phenyl]-2-thia-4,10,13,16,19-pentazatricyclo[19.4.0.03,8]pentacosa-1(25), 3(8),4,6,21,23-hexaene-12,15,18-trione] | 7.70
CN1C(=O)[C@H](CCCN)NC(=O)[C@H](CCN)NCc2cccnc2Sc2c(Cl)ccc(-c3ccc(S(=O)(=O)O)cc3)c2CNC(=O)[C@@H]1Cc1c[nH]c2ccccc12 [Example 13.00, 4-[(11S,14S,17S)-11-(2-Aminoethyl)-14-(3-aminopropyl)-25-chloro-17-(1H-indol-3-ylmethyl)-16-methyl-12,15,18-trioxo-2-thia-4,10,13,16,19-pentazatricyclo[19.4.0.03,8]pentacosa-1(25), 3(8),4,6,21,23-hexaen-22-yl]benzenesulfonic acid] | 7.70
C[C@@H]1NCc2cccnc2Sc2c(Cl)ccc(-c3ccc(S(=O)(=O)O)cc3)c2CNC(=O)[C@H](Cc2c[nH]c3ccccc23)N(C)C(=O)[C@H](CCCN)NC1=O [Example 14.00, 4-[(11S,14S,17S)-14-(3-Aminopropyl)-25-chloro-17-(1H-indol-3-ylmethyl)-11,16-dimethyl-12,15,18-trioxo-2-thia-4,10,13,16,19-pentazatricyclo[19.4.0.03,8]pentacosa-1(25), 3(8),4,6,21,23-hexaen-22-yl]benzenesulfonic acid] | 6.14
